For 21 compounds, IC50 results are on record in patent US6218406A, “Farnesyl transferase inhibitors, their preparation, the pharmaceutical compositions which contain them and their use in the preparation of medicaments” (Aventis Pharma S.A., priority 1996, dated 2001).

The target in the test is farnesyl transferase (Homo sapiens, UniProt P49354+P49356). The test is described as follows: Farnesyl transferase inhibition, [3H]-farnesylation of biotinylated K-ras C-terminal peptide (SPA assay). Format: biochemical. The settings on record: 60 min at 37° C., mean of two IC50 values. The method, then: The farnesyl transferase activity was measured by the amount farnesylated of K-ras substrate or of substrate derived from the peptide corresponding to its C-terminal part, the farnesyl group being introduced by farnesyl pyrophosphate (FPP).
It was then brought into contact with PVT-streptavidin (Amersham)® beads and was quantified by proximity scintillation (SPA assay) between the tritium and the PVT beads, by virtue of the streptavidin/biotin interaction.
Experimentally, farnesyl transferase purified according to the appended protocol was diluted, for this assay, to a concentration such that a consumption of substrates of less than 30% was obtained.
The reaction, carried out in Optiplates 96° microtitration plates, was initiated by the enzyme and lasted sixty minutes at 37° C. It was stopped by addition of 150 μl of mixture of a blocking buffer at pH 4 composed of 0.2M H3 PO4, 1.5 mM MgCl2, 0.5% (w/v) BSA, 0.05% (w/v) sodium azide containing 200 μg of PVT-streptavidin beads.
After slow agitation for thirty minutes (in order to remove the chemiluminescence), the plates were read as [^3 H]CPM in a Top Count® (Packard) scintillation counter for microplates, where they were converted into [^3 H]DPM from a range of coloured agent attenuating the scintillation (quenching).
The percentages of inhibition were calculated with respect to an inhibitor-free control after subtraction from all the values of that of a blank which only contained the substrates and the buffer.
The IC50 values were calculated or measured, from the inhibitions obtained at nine different concentrations, with Enzfitter® or Grafit® software. The IC50 values which appear in the results are the mean of measurements and calculations of two IC50 values.

The mark [1] stands for this setting: K-Ras substrate, read-out: In vitro inhibitory activity (K-Ras) IC50.

Structures can show the parent of a compound that is named as a salt. Where two headings read alike, the source gives them in different places.

`C=C(C(=O)N1C[C@@H]2[C@]3(c4ccc5c(c4)OCO5)CC[C@@H](c4ccccc43)[C@]2(C(=O)O)C1)c1ccccc1OC` (racemic) [Example 70, (3aRS,4SR,9SR,9aRS)-9-(1,3-benzodioxol-5-yl)-4,9-ethano-2-[2-(2-methoxyphenyl)propenoyl]-2,3,3a,4,9,9a-hexahydro-1H-benzo[f]isoindole-3a-carboxylic Acid]: under setting [1], the IC50 was 67 nM.

Consider `C=C(C(=O)N1C[C@@H]2[C@]3(c4ccc(C)c(C)c4)CC[C@@H](c4ccccc43)[C@]2(C(=O)OC)C1)c1ccccc1OC` (racemic) [Example 71, methyl (3aRS,4SR,9SR,9aRS)-9-(3,4-dimethylphenyl)-4,9-ethano-2-[2-(2-methoxyphenyl)propenoyl]-2,3,3a,4,9,9a-hexahydro-1H-benzo[f]isoindole-3a-carboxylate], for which the 50% inhibitory concentration (IC50) under setting [1] came to 335 nM.

As for `C=C(C(=O)N1C[C@@H]2[C@]3(c4ccc(C)c(C)c4)CC[C@@H](c4ccccc43)[C@]2(C(=O)O)C1)c1ccccc1OC` (racemic) [Example 72, (3aRS,4SR,9SR,9aRS)-9-(3,4-dimethylphenyl)-4,9-ethano-2-[2-(2-methoxyphenyl)propenoyl]-2,3,3a,4,9,9a-hexahydro-1H-benzo[f]isoindole-3a-carboxylic Acid], the 50% inhibitory concentration (IC50) under setting [1] amounted to 98 nM.

As for `C=C(C(=O)N1C[C@@H]2[C@]3(c4ccc(OC)cc4)CC[C@@H](c4ccccc43)[C@]2(C(=O)OC)C1)c1ccccc1OC` (racemic) [Example 73, methyl (3aRS,4SR,9SR,9aRS)-4,9-ethano-9-(4-methoxyphenyl)-2-[2-(2-methoxyphenyl)propenoyl]-2,3,3a,4,9,9a-hexahydro-1H-benzo[f]isoindole-3a-carboxylate], the IC50 under setting [1] amounted to 460 nM.

Turning to `C=C(C(=O)N1C[C@@H]2[C@]3(c4ccc(OC)cc4)CC[C@@H](c4ccccc43)[C@]2(C(=O)O)C1)c1ccccc1OC` (racemic) [Example 74, (3aRS,4SR,9SR,9aRS)-4,9-ethano-9-(4-methoxyphenyl)-2-[2-(2-methoxyphenyl)propenoyl]-2,3,3a,4,9,9a-hexahydro-1H-benzo[f]isoindole-3a-carboxylic Acid], under setting [1], the IC50 is 48 nM.

On to `C=C(C(=O)N1C[C@@H]2[C@]3(c4ccc(OC)cc4)CC[C@@H](c4ccccc43)[C@]2(C(=O)NO)C1)c1ccccc1OC` (racemic) [Example 78, (3aRS,4SR,9SR,9aRS)-4,9-ethano-9-(4-methoxyphenyl)-2-[2-(2-methoxyphenyl)propenoyl]-2,3,3a,4,9,9a-hexahydro-1H-benzo[f]isoindole-3a-hydroxamic acid], for which the concentration for half-maximal inhibition (IC50) under setting [1] turned out to be 48 nM.

Regarding `C=C(C(=O)N1C[C@@H]2[C@]3(c4ccc(OC(F)(F)F)cc4)CC[C@@H](c4ccccc43)[C@]2(C(=O)O)C1)c1ccccc1OC` (racemic) [Example 82, (3aRS,4SR,9SR,9aRS)-4,9-ethano-2-[2-(2-methoxyphenyl)propenoyl]-9-(4-trifluoromethoxyphenyl)-2,3,3a,4,9,9a-hexahydro-1H-benzo[f]isoindole-3a-carboxylic Acid], the IC50 under setting [1] turned out to be 97 nM.

For `C=C(C(=O)N1C[C@@H]2[C@]3(c4cccc(Br)c4)CC[C@@H](c4ccccc43)[C@]2(C(=O)OC)C1)c1ccccc1OC` (racemic) [Example 83, methyl (3aRS,4SR,9SR,9aRS)-9-(3-bromophenyl)-4,9-ethano-2-[2-(2-methoxyphenyl)propenoyl]-2,3,3a,4,9,9a-hexahydro-1H-benzo[f]isoindole-3a-carboxylate], the concentration for half-maximal inhibition (IC50) under setting [1] came out at 319 nM.

In the case of `C=C(C(=O)N1C[C@@H]2[C@]3(c4cccc(Br)c4)CC[C@@H](c4ccccc43)[C@]2(C(=O)O)C1)c1ccccc1OC` (racemic) [Example 84, (3aRS,4SR,9SR,9aRS)-9-(3-bromophenyl)-4,9-ethano-2-[2-(2-methoxyphenyl)propenoyl]-2,3,3a,4,9,9a-hexahydro-1H-benzo[f]isoindole-3a-carboxylic Acid], the 50% inhibitory concentration (IC50) under setting [1] was 8 nM.

Regarding `C=C(C(=O)N1C[C@@H]2[C@]3(c4cccc(F)c4)CC[C@@H](c4ccccc43)[C@]2(C(=O)OC)C1)c1ccccc1OC` (racemic) [Example 85, methyl (3aRS,4SR,9SR,9aRS)-4,9-ethano-9-(3-fluorophenyl)-2-[2-(2-methoxyphenyl)propenoyl]-2,3,3a,4,9,9a-hexahydro-1H-benzo[f]isoindole-3a-carboxylate], the IC50 under setting [1] came out at 508 nM.

Turning to `C=C(C(=O)N1C[C@@H]2[C@]3(c4cccc(F)c4)CC[C@@H](c4ccccc43)[C@]2(C(=O)O)C1)c1ccccc1OC` (racemic) [Example 86, (3aRS,4SR,9SR,9aRS)-4,9-ethano-9-(3-fluorophenyl)-2-[2-(2-methoxyphenyl)propenoyl]-2,3,3a,4,9,9a-hexahydro-1H-benzo[f]isoindole-3a-carboxylic Acid], the IC50 under setting [1] amounted to 5 nM.

For `C=C(C(=O)N1C[C@@H]2[C@]3(c4cccc(Cl)c4)CC[C@@H](c4ccccc43)[C@]2(C(=O)OC)C1)c1ccccc1OC` (racemic) [Example 88, methyl (3aRS,4SR,9SR,9aRS)-9-(3-chlorophenyl)-4,9-ethano-2-[2-(2-methoxyphenyl)propenoyl]-2,3,3a,4,9,9a-hexahydro-1H-benzo[f]isoindole-3a-carboxylate], the IC50 under setting [1] was 404 nM.

For `C=C(C(=O)N1C[C@@H]2[C@]3(c4cccc(Cl)c4)CC[C@@H](c4ccccc43)[C@]2(C(=O)O)C1)c1ccccc1OC` (racemic) [Example 89, (3aRS,4SR,9SR,9aRS)-9-(3-chlorophenyl)-4,9-ethano-2-[2-(2-methoxyphenyl)propenoyl]-2,3,3a,4,9,9a-hexahydro-1H-benzo[f]isoindole-3a-carboxylic Acid], under setting [1], the half-inhibitory concentration (IC50) amounted to 5 nM.

For the compound `C=C(C(=O)N1C[C@@H]2[C@]3(c4cccc(N)c4)CC[C@@H](c4ccccc43)[C@]2(C(=O)OC)C1)c1ccccc1OC` (racemic) [Example 93, methyl (3aRS,4SR,9SR,9aRS)-9-(3-aminophenyl)-4,9-ethano-2-[2-(2-methoxyphenyl)propenoyl]-2,3,3a,4,9,9a-hexahydro-1H-benzo[f]isoindole-3a-carboxylate hydrochloride], the IC50 under setting [1] worked out at 786 nM.

Consider `C=C(C(=O)N1C[C@@H]2[C@]3(c4ccc(C#N)cc4)CC[C@@H](c4ccccc43)[C@]2(C(=O)O)C1)c1ccccc1OC` (racemic) [Example 95, (3aRS,4SR,9SR,9aRS)-9-(4-cyanophenyl)-4,9-ethano-2-[2-(2-methoxyphenyl)propenoyl]-2,3,3a,4,9,9a-hexahydro-1H-benzo[f]isoindole-3a-carboxylic Acid], for which the IC50 under setting [1] worked out at 177 nM.

As for `C=C(C(=O)N1C[C@@H]2[C@]3(c4cccc(C#N)c4)CC[C@@H](c4ccccc43)[C@]2(C(=O)OC)C1)c1ccccc1OC` (racemic) [Example 96, methyl (3aRS,4SR,9SR,9aRS)-9-(3-cyanophenyl)-4,9-ethano-2-[2-(2-methoxyphenyl)propenoyl]-2,3,3a,4,9,9a-hexahydro-1H-benzo[f]isoindole-3a-carboxylate], the IC50 under setting [1] is 955 nM.

On to `C=C(C(=O)N1C[C@@H]2[C@]3(c4ccc(OC)c(O)c4)CC[C@@H](c4ccccc43)[C@]2(C(=O)O)C1)c1ccccc1OC` (racemic) [Example 97, (3aRS,4SR,9SR,9aRS)-4,9-ethano-9-(3-hydroxy-4-methoxyphenyl)-2-[2-(2-methoxyphenyl)propenoyl]-2,3,3a,4,9,9a-hexahydro-1H-benzo[f]isoindole-3a-carboxylic Acid], for which the IC50 under setting [1] is 40 nM.

`C=C(C(=O)N1C[C@@H]2[C@]3(c4ccc(C)cc4)CC[C@@H](c4c(OC)cccc43)[C@]2(C(=O)OC)C1)c1ccccc1OC` (racemic) [Example 98, methyl (3aRS,4SR,9SR,9aRS)-4,9-ethano-5-methoxy-2-[2-(2-methoxyphenyl)propenoyl]-9-(4-methylphenyl)-2,3,3a,4,9,9a-hexahydro-1H-benzo[f]isoindole-3a-carboxylate]: the half-maximal inhibitory concentration (IC50) under setting [1] was determined as 663 nM.

On to `C=C(C(=O)N1C[C@@H]2[C@]3(c4ccc(C)cc4)CC[C@@H](c4c(OC)cccc43)[C@]2(C(=O)O)C1)c1ccccc1OC` (racemic) [Example 99, (3aRS,4SR,9SR,9aRS)-4,9-ethano-5-methoxy-2-[2-(2-methoxyphenyl)propenoyl]-9-(4-methylphenyl)-2,3,3a,4,9,9a-hexahydro-1H-benzo[f]isoindole-3a-carboxylic Acid], for which the half-inhibitory concentration (IC50) under setting [1] is 18 nM.

`C=C(C(=O)N1C[C@@H]2[C@]3(c4ccc(OC)cc4)CC[C@@](C)(c4ccccc43)[C@@]2(C(=O)O)C1)c1ccccc1OC` (racemic) [Example 101, (3aRS,4SR,9SR,9aRS)-4,9-ethano-2-[2-(2-methoxyphenyl)propenoyl]-9-(4-methoxyphenyl)-4-methyl-2,3,3a,4,9,9a-hexahydro-1H-benzo[f]isoindole-3a-carboxylic Acid]: the IC50 under setting [1] was below 19 nM.

Regarding `COc1ccccc1CC(=O)N1C[C@H]2[C@@]3(c4ccc(C)cc4)CC[C@H](c4ccccc43)[C@@]2(C(=O)O)C1` (relative stereo) [Example 5, (3aRS,4SR,9SR,9aRS)-4,9-ethano-2-[(2-methoxyphenyl)acetyl]-9-(4-methylphenyl)-2,3,3a,4,9,9a-hexahydro-1H-benzo[f]isoindole-3a-carboxylic Acid], inhibition (In vitro inhibitory activity (K-Ras) IC50, K-Ras substrate) was half-maximal at 50 nM (IC50).

As usually defined, the IC50 is the midpoint of a concentration-inhibition curve.
